Assay results from ChEMBL document CHEMBL1201862, “PubChem BioAssay data set” (2004).
Activity calls are given as the source filed them.

Experiments:
[1] = biological target: Induced myeloid leukemia cell differentiation protein Mcl-1 (Homo sapiens, UniProt Q07820); assay type: functional
[2] = biological target: T1, Luciferin 4-monooxygenase (Photinus pyralis, UniProt P08659); assay: Counter Screen for Luciferase-based Assay Positives. [Related pubchem assays: 620, 618, 411 ]
HT-1080 = assay: cytotoxicity in HT1080 fibrosarcoma cells, cell-based, fluorescence readout (AID 620); assay type: functional; settings: Homo sapiens
[3] = biological target: Eukaryotic translation initiation factor 4E (Mus musculus, UniProt P63073); assay: eIF4E–eIF4G protein interaction inhibitors, dose response, biochemical, TR-FRET (AID 855); assay type: functional;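 note: potency for disrupting eIF4E binding to eIF4GI seen as loss of FRET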
[4] = off-target signal loss in HeLa-CEM21 co-culture – HeLa F-luc CTL cells, cherry-picked, counter-screen for HIV-1 Env fusion inhibitor project, dose response (AID 652040); assay type: functional, cell-based;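 note: potency for signal decrease marking cytotoxic or nonspecific inhibition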
[5] = biological target: T2, Corticotropin-releasing factor receptor 2/Corticotropin-releasing factor-binding protein (Homo sapiens, UniProt P24387+Q13324); assay: activators of CRF receptor 2 with binding protein – uHTS hits, confirmation (AID 602473); assay type: functional; settings: read-out: EC50_Mean
T2 sequence (Q13324 whole entry): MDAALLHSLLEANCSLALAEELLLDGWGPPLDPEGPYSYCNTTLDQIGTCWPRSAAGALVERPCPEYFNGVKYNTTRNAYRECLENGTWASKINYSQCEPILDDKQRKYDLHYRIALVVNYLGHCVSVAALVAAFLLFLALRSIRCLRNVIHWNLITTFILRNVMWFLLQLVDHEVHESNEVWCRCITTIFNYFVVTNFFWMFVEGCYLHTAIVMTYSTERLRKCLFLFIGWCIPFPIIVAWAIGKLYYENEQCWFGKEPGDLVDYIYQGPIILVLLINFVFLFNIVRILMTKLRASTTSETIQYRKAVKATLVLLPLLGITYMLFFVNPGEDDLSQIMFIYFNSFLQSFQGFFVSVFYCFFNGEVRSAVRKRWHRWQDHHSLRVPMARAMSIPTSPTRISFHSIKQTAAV
T2 sequence (P24387 whole entry): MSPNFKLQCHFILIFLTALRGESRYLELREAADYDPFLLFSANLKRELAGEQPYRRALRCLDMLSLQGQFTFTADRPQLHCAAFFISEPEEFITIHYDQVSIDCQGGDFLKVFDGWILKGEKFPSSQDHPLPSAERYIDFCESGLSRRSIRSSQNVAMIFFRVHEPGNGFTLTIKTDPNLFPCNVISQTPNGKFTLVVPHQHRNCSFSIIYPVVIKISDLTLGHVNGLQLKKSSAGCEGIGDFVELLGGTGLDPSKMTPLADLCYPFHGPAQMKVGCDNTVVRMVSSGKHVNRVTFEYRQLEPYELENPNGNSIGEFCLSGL

[6] = biological target: T3, Short transient receptor potential channel 4 (Mus musculus, UniProt Q9QUQ5); assay: mouse TRPC4 channel inhibitors, dose response, cell-based, HEK293 TRPC4/mu-opioid, Fluo-4 calcium (AID 434942); assay type: functional;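 note: potency of inhibitors blocking the TRPC4 calcium response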
T3 sequence (Q9QUQ5 whole entry): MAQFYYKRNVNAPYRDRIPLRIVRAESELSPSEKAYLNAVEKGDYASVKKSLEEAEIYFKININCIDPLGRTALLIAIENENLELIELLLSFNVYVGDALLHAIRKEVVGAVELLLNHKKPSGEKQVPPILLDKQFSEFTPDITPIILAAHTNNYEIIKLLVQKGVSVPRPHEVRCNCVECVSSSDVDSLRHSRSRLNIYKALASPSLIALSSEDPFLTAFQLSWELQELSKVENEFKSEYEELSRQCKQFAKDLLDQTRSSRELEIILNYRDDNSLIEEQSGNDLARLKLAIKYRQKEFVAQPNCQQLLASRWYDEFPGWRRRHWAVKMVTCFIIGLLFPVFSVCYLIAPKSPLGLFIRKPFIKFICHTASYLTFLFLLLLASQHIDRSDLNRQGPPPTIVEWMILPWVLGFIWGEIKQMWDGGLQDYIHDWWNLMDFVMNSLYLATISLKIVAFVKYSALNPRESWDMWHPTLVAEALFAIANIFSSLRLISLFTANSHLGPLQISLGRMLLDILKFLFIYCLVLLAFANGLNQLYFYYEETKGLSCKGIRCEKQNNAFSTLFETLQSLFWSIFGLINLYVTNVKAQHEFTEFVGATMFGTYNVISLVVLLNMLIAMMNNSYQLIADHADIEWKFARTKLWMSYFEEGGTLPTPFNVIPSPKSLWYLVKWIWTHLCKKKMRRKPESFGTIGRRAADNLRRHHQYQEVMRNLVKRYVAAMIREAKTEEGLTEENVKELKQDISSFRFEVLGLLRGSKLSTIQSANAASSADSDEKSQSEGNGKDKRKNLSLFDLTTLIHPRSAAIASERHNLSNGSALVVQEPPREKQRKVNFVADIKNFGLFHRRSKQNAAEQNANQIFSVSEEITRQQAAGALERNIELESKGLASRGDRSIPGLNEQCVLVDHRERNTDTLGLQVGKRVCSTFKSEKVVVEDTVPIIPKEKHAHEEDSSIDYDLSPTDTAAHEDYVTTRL

[7] = biological target: T2, Corticotropin-releasing factor receptor 2/Corticotropin-releasing factor-binding protein; assay: Dose Response confirmation of uHTS hits for small molecule antagonists of the CRF-binding protein and CRF-R2 receptor complex.; assay type: functional; settings: read-out: IC50_Mean
[8] = cytotoxicity in HEK-293T cells, dose response, cytotoxicity control for BCR NF-kB inhibitor project, luminescence, B-cell screen hits (AID 489021); assay type: functional, cell-based;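 note: HEK-293T cells carrying an NF-kB luciferase reporter; cells exposed to compound for about 14 hours before viability readout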
[9] = biological target: Glyceraldehyde-3-phosphate dehydrogenase (Homo sapiens, UniProt P04406)
[10] = biological target: DNA dC->dU-editing enzyme APOBEC-3A (Homo sapiens, UniProt P31941); assay: APOBEC3A DNA deaminase inhibitors, dose response, biochemical (AID 504722); assay type: functional
[11] = biological target: DNA dC->dU-editing enzyme APOBEC-3G (Homo sapiens, UniProt Q9HC16); assay: Dose Response confirmation of small molecule APOBEC3G DNA Deaminase Inhibitors via a fluorescence-based single-stranded DNA deaminase assay. [Related pubchem assays (depositor defined):AID493012, AID493028]; assay type: functional
[12] = biological target: T4, Heat shock factor protein 1 (Mus musculus, UniProt P38532); assay: inhibition of MG132-induced HSE-luciferase signal, confirmation, cell-based, NIH3T3, luminescence, dose retest (AID 2382); assay type: functional;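 note: NIH3T3 fibroblasts with HSF1-driven luciferase reporter stressed by proteasome inhibitor MG132; luminescence from HSF1-driven luciferase expression after 8 hours of MG132 stress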
T4 sequence (P38532 whole entry): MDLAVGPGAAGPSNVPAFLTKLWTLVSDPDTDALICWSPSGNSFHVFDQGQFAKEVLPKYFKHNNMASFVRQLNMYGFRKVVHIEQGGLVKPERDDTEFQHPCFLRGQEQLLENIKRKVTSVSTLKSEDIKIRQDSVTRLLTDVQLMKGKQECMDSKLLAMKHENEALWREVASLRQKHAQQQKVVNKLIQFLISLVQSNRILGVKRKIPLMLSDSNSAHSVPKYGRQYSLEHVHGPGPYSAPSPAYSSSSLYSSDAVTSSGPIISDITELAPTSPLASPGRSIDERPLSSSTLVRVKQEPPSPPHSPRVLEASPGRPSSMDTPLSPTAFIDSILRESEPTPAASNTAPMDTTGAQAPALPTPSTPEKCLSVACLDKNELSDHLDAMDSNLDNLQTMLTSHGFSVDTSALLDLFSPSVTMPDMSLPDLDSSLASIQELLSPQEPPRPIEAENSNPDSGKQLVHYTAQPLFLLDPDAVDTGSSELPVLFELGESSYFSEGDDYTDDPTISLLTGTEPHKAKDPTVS

[13] = biological target: T1, Luciferin 4-monooxygenase; assay: firefly luciferase enzyme inhibitors, dose response, biochemical, luminescence (AID 1891)
[14] = biological target: Glucose-6-phosphate 1-dehydrogenase (Homo sapiens, UniProt P11413); assay: human G6PD enzyme inhibitors, dose response, selectivity assay for P. falciparum G6PD inhibitor project, biochemical, fluorescence (AID 504792); assay type: functional
[15] = HEp-2 cell cytotoxicity, dose response, cytotoxicity control for RSV inhibitor project, HTS (AID 2410); assay type: functional; settings: human respiratory syncytial virus
[16] = inhibitors of firefly luciferase expression or activity, dose response, H4 neuroglioma cells, luminescence (AID 1990); assay type: functional, cell-based
[17] = inhibitors of SNCA 5'UTR-driven reporter translation, confirmation, H4 neuroglioma cells, luminescence (AID 1988); assay type: functional, cell-based
[18] = Luminescence Cell-Based Dose Response HTS to Identify Inhibitors of 5'UTR Stem-Loop Driven Prion Protein mRNA Translation in H4 Neuroglioblastoma Cells. [Related pubchem assays: 1827 (Project Summary), 1813 (Primary HTS)]; assay type: functional
[19] = P. falciparum 3D7-ScDHODH growth inhibitors, dose response, SYBR Green, dry powder samples (AID 1159570); assay type: functional, cell-based;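 note: parasite growth measured after 72 hours of compound exposure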
[20] = P. falciparum Dd2 growth inhibitors, dose response, SYBR Green, dry powder samples (AID 1159566); assay type: functional, cell-based;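 note: potency for growth inhibition with lower SYBR green DNA signal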
[21] = P. falciparum Dd2 growth inhibitors, dose response, SYBR Green, cherry-picked samples (AID 1159567); assay type: functional, cell-based
[22] = P. falciparum ATP4 D1247Y mutant growth inhibitors, dose response, NITD609-resistant line, SYBR Green, dry powder (AID 1159571); assay type: functional, cell-based;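 note: parasites synchronized at ring stage by sorbitol before testing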
Coagulation factor XII = biological target: T5, Coagulation factor XII (Homo sapiens, UniProt P00748); assay type: functional;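 note: activated factor XIIa alpha cleaving a fluorogenic AMC peptide substrate; inhibitor potency from loss of enzyme activity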
T5 sequence (P00748 whole entry): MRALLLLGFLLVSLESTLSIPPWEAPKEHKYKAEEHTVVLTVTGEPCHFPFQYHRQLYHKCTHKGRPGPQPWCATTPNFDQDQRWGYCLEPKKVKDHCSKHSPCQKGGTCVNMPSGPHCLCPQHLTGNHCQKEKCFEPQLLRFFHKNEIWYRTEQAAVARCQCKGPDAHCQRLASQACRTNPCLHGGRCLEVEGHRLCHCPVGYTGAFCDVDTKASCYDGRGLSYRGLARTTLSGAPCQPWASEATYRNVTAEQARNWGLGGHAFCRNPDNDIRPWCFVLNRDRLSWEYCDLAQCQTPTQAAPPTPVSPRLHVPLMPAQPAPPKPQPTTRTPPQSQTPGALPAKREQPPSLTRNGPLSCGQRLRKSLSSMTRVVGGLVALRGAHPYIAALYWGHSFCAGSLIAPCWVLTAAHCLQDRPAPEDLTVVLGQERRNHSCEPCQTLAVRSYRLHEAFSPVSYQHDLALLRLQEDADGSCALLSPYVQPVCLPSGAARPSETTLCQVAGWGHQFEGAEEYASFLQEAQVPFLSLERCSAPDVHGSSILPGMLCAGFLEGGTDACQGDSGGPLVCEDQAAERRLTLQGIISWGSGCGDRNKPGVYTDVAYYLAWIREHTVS

Sequence of DNA dC->dU-editing enzyme APOBEC-3G (Q9HC16 whole entry): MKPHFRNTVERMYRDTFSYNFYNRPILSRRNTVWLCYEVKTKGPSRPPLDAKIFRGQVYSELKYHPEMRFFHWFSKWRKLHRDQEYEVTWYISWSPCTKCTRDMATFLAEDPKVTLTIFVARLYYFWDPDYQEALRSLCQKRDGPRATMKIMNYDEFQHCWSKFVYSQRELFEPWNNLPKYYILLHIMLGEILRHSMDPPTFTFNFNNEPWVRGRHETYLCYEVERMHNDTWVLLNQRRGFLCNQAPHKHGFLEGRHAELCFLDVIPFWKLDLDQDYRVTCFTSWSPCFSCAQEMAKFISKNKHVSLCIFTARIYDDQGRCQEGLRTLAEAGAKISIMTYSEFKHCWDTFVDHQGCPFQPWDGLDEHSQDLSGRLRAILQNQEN
Sequence of DNA dC->dU-editing enzyme APOBEC-3A (P31941 whole entry): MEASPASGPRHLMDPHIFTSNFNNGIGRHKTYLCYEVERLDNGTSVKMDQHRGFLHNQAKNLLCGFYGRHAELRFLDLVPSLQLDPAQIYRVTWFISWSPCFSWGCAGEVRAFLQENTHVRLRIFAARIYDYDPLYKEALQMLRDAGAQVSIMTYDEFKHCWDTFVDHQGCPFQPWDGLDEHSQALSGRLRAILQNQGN
T1 sequence (P08659 whole entry): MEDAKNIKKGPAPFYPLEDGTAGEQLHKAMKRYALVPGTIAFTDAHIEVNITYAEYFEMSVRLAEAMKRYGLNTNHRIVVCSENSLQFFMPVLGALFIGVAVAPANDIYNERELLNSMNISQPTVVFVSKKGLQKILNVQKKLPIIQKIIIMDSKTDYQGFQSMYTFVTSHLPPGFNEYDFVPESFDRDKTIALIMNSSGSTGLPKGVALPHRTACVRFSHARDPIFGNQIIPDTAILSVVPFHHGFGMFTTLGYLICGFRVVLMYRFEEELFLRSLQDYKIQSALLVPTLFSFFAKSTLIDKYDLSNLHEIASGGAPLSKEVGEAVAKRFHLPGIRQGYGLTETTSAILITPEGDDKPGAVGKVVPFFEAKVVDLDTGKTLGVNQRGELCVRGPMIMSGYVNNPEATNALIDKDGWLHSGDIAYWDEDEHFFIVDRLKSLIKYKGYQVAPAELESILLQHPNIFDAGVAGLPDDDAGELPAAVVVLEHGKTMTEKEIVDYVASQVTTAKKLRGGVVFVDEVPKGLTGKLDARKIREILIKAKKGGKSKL
Sequence of Eukaryotic translation initiation factor 4E (P63073 whole entry, the tested form may be a part): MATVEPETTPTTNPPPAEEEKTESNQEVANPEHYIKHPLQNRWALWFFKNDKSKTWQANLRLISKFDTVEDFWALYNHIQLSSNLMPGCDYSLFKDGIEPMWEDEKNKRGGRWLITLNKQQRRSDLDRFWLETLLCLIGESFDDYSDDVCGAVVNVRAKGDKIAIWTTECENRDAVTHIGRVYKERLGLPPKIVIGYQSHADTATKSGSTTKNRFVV
Sequence of Induced myeloid leukemia cell differentiation protein Mcl-1 (Q07820 whole entry): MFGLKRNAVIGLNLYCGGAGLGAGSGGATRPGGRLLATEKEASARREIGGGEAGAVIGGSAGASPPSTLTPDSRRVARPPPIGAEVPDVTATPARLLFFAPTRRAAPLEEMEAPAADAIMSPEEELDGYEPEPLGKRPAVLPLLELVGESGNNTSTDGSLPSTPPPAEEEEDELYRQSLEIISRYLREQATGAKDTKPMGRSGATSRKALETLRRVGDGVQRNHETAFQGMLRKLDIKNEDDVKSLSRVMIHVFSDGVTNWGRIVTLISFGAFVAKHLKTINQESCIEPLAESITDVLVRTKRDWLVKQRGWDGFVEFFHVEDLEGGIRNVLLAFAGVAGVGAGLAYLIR
Sequence of Glucose-6-phosphate 1-dehydrogenase (P11413 whole entry): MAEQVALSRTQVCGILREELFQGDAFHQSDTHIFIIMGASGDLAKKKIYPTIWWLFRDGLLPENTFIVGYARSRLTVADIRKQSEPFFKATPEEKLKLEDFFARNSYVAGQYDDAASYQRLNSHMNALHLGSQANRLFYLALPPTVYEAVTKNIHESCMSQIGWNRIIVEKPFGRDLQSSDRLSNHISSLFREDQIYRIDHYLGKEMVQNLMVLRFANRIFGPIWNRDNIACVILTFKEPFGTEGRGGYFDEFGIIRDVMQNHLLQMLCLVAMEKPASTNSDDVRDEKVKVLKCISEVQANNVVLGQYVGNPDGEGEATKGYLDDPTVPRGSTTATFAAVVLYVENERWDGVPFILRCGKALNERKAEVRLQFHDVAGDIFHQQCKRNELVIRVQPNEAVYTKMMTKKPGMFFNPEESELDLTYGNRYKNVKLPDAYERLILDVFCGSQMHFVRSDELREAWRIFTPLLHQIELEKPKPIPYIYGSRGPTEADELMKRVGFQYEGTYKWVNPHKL
Sequence of Glyceraldehyde-3-phosphate dehydrogenase (P04406 whole entry): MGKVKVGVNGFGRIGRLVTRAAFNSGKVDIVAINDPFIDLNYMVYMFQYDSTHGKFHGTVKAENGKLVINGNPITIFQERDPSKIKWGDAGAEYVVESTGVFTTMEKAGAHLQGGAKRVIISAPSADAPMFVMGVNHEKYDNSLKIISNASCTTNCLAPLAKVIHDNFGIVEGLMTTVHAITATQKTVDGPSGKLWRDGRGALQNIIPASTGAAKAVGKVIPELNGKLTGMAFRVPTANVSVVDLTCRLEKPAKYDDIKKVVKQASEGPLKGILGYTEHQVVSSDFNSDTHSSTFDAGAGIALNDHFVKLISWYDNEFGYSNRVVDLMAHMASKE

SMILES: O=C(N/N=C/c1ccc(O)cc1)c1cccc(N/N=C/c2ccc(O)cc2)c1
- IC50 [1]: 6.06 µM (active)

SMILES: CC(C)C(=O)Nc1ccc(-c2nc3cccnc3o2)cc1
- EC50 [2]: < 0.2 µM (active)
- EC50 (HT-1080): > 50 µM (not active)

SMILES: CCNC(=O)C1=C(O)c2sccc2N(C)S1(=O)=O
- IC50 [3]: 50 µM (inactive)

SMILES: Cc1cc(C)nc(NC(=N)Nc2ccc(CC(=O)OC(C)C)cc2)n1
- AC50 [4]: 22.1 µM (active)

SMILES: Cc1nn(-c2cccc(Cl)c2)c2nc(C(F)(F)F)[nH]c(=O)c12
- EC50 [5]: > 53 µM (inactive)
- EC50 [6]: 3.35 µM (active)
- IC50 [7]: 2.6 µM (active)

SMILES: Cc1ccoc1C(=O)Nc1ccc(CC(=O)O)cc1
- EC50 [2]: 1.12 µM (active)
- EC50 (HT-1080): > 50 µM (not active)
- IC50 [8]: > 80 µM (inactive)
- IC50 [9]: > 100 µM (not active)

SMILES: O=C1NC(c2ccc3c(c2)OCO3)Oc2ccccc21 (stereo not drawn)
- IC50 [3]: > 64 µM (inactive)

SMILES: COCCn1c(-c2ccc(Cl)cc2Cl)nc2c(c(=O)c3ccccc3n2C)c1=O
- IC50 (cells): > 50 µM (active)

SMILES: CC1(C)Cc2ccccc2-c2n[nH]c(=S)n21
- IC50 [10]: > 100 µM (inactive)
- IC50 [11]: 4.33 µM (active)
- EC50 [12]: > 195 µM (not active)

SMILES: Cc1[nH]c(=S)c(C#N)c(C)c1CCC#N
- EC50 [13]: > 112 µM (not active)
- IC50 [10]: > 100 µM (inactive)
- IC50 [11]: 9.7 µM (active)
- IC50 [14]: > 80 µM (inactive)

SMILES: Cc1ccccc1CC1(CO)CCCN(Cc2c(C)nn(C)c2Cl)C1 (stereo not drawn)
- IC50 (cells): 7.18 µM (active)
- CC50 [15]: 49.4 µM (active)

SMILES: Fc1cccc(-c2n[nH]c(=S)n2-c2ccccc2)c1
- IC50 [10]: > 100 µM (inactive)
- IC50 [11]: 4.26 µM (active)

SMILES: COc1ccc(OC)c(-c2cc(C(=O)Nc3c(C)nn(Cc4ccc(Cl)cc4)c3C)no2)c1
- EC50 [16]: 13.6 µM (active)
- AC50 [4]: > 70 µM (inactive)
- EC50 [17]: 13.9 µM (active)
- EC50 [18]: 19.5 µM (active)

SMILES: C[C@@H]1CN([C@@H](C)CO)C(=O)c2cccc(NC(=O)c3ccc(-c4nccs4)cc3)c2O[C@H]1CN(C)Cc1ccc(Cl)c(Cl)c1
- AC50 [19]: 1.25 µM (active)
- AC50 [20]: 0.922 µM (active)
- AC50 [21]: 1.7 µM (active)
- AC50 [22]: 0.692 µM (active)

SMILES: O=C(Nc1cccc(S(=O)(=O)Nc2ccccc2F)c1)c1ccc2ccccc2n1
- IC50 [10]: > 100 µM (inactive)
- IC50 [11]: 15.6 µM (active)

SMILES: C/C(=N\NC(=O)c1cccc(N/N=C(\C)c2ccccc2)c1)c1ccccc1
- IC50 (Coagulation factor XII): > 50 µM (inactive)

SMILES: CCOC(=O)C1(Cc2cccc(OC)c2)CCN(Cc2cccn2-c2nccs2)CC1
- IC50 (cells): 10.2 µM (active)
- CC50 [15]: > 50 µM (active)
